Assay results reported in PMC8961568 (Biomolecules, 2022).

Molecular target: T1, HQDS.b. (Streptomyces bingchenggensis, UniProt D7BW96)
T1 construct: gene SBI_08688; His8-TEV tagged (pET28b), E. coli BL21(DE3), Ni-NTA purified
T1 sequence (D7BW96 1-278): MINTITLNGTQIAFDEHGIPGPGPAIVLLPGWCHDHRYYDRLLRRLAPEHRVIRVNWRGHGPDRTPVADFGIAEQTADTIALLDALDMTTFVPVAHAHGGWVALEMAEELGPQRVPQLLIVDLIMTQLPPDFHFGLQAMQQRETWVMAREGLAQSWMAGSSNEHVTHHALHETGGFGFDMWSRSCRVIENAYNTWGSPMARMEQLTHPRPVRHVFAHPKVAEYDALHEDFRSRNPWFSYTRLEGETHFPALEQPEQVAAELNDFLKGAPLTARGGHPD
Assay: spectrophotometric PQS consumption at […] nm
Format: biochemical
Conditions: 50 mM Tris, 2 mM EDTA, 10% PEG 1500, pH 8.0, 30 °C

CCCCCCCc1[nH]c2ccccc2c(=O)c1O [PQS, 2-heptyl-3-hydroxy-4(1H)-quinolone]
KM: HQDS.b., which exhibits the lowest KM towards PQS among the enzymes tested (Table S1)
